Assay results published in patent US12391674B2, “Heterocyclic compounds for the treatment of epilepsy” (OTSUKA PHARMACEUTICAL CO., LTD., priority 2018, dated 2025).

What was measured:
DBA/2 mice = experiment: Audiogenic seizure model; assay type: in vivo; conditions: Mus musculus, DBA/2 mice, oral, auditory stimulation 1 hour after administration, read-out: Seizure suppression
How it was run: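 Male and female DBA/2 mice (3 weeks old, 8/group) dosed orally at 30 mg/kg in 5% gum arabic; 1 h later exposed to 12.6 kHz, 100-110 dB tone for 1 min or until tonic seizure. Maximum seizure score (0–4) recorded; suppression rate graded A (≥90%), B (70–<90%), C (50–<70%).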

ICR mice = experiment: Rotarod test (motor coordination); assay type: in vivo, mouse; conditions: oral, rotarod 1 hour after administration
How it was run: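 Motor coordination was assessed in male ICR mice (Japan SLC, Inc., 5-6 weeks old, 8 per group). Animals were first trained to stay for 2 minutes on a rotarod turning at a fixed 15 rpm. One hour after oral dosing, each mouse was placed on a rod accelerating from 4 rpm to 40 rpm over 5 minutes, and latency to fall was recorded for up to 200 seconds. Latencies were expressed relative to the mean of the solvent-treated group.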

| SMILES | inhibition in vivo at 5 mg/kg (DBA/2 mice) [%] | Motor dysfunction (ICR mice; dose 5 mg/kg) | inhibition in vivo at 30 mg/kg (DBA/2 mice) [%] | Motor dysfunction (ICR mice; dose 30 mg/kg) | also measured |
| --- | --- | --- | --- | --- | --- |
| O=c1cnc2cc(-c3cnc(Oc4ccccc4)nc3)ccc2[nH]1 [Example 256] | 70 to 90 | A (a coordination disorder of 25% or less) |  |  |  |
| c1ccc(Oc2ncc(-c3ccc4[nH]cnc4c3)cn2)cc1 [Example 258] | > 90 | A (a coordination disorder of 25% or less) |  |  |  |
| O=C1Cc2cc(-c3cnc(Oc4ccccc4)nc3)ccc2N1 [Example 259] | > 90 | A (a coordination disorder of 25% or less) |  |  |  |
| c1ccc(Oc2ncc(-c3ccc4[nH]ccc4c3)cn2)cc1 [Example 262, 5-(2-Phenoxypyrimidin-5-Yl)-1H-Indole] | > 90 | A (a coordination disorder of 25% or less) |  |  |  |
| Cn1ncc2ccc(-c3cnc(Oc4ccccc4)nc3)nc21 [Example 275] |  |  | > 90 | A (a coordination disorder of 25% or less) |  |
| FC(F)(F)c1nnc2ccc(-c3cnc(Oc4ccccc4)nc3)cn12 [Example 279] |  |  |  |  | inhibition in vivo at 1 mg/kg (DBA/2 mice): > 90%; Motor dysfunction (ICR mice; dose 1 mg/kg): A (a coordination disorder of 25% or less) |
| c1ccc(Oc2ncc(-c3ccn4cncc4c3)cn2)cc1 [Example 283] | > 90 | A (a coordination disorder of 25% or less) |  |  |  |
| FC(F)(F)c1ncc2ccc(-c3cnc(Oc4ccccc4)nc3)cn12 [Example 285] | > 90 | A (a coordination disorder of 25% or less) |  |  |  |
| c1ccc(Oc2ncc(-c3ccc4nncn4n3)cn2)cc1 [Example 289] |  |  |  |  | inhibition in vivo at 1 mg/kg (DBA/2 mice): > 90%; Motor dysfunction (ICR mice; dose 1 mg/kg): A (a coordination disorder of 25% or less) |
| c1cncc(Oc2ncc(-c3ccc4nccn4c3)cn2)c1 [Example 294] | > 90 | A (a coordination disorder of 25% or less) |  |  |  |
| FC(F)(F)c1ncc(-c2cnc(Oc3ccccc3)nc2)cn1 [Example 296] |  |  | > 90 | A (a coordination disorder of 25% or less) |  |
| N#Cc1ccc(-c2cnc(Oc3ccccc3)nc2)cn1 [Example 297] |  |  |  |  | inhibition in vivo at 1 mg/kg (DBA/2 mice): > 90%; Motor dysfunction (ICR mice; dose 1 mg/kg): A (a coordination disorder of 25% or less) |
| Nc1nc2ccc(-c3cnc(Oc4ccccc4)nc3)cn2n1 [Example 298] |  |  |  |  | inhibition in vivo at 1 mg/kg (DBA/2 mice): > 90%; Motor dysfunction (ICR mice; dose 1 mg/kg): A (a coordination disorder of 25% or less) |
| FC(F)(F)c1cc(-c2cnc(Oc3ccccc3)nc2)ccn1 [Example 299] | > 90 | A (a coordination disorder of 25% or less) |  |  |  |
| FC(F)(F)c1ccnc(-c2cnc(Oc3ccccc3)nc2)n1 [Example 300] |  |  | > 90 | A (a coordination disorder of 25% or less) |  |
| O=C1CCN(c2ccc(Oc3cccc(F)c3)cc2)C(=O)N1 [Example 302, 1-(4-(3-Fluorophenoxy)Phenyl)Dihydropyrimidine-2,4 (1H,3H)-Dione] |  |  | > 90 | A (a coordination disorder of 25% or less) |  |
| O=C1CCN(c2ccc(Oc3ccccc3)cc2)C(=O)N1 [Example 303] |  |  | > 90 | A (a coordination disorder of 25% or less) |  |
| O=C1CCN(c2ccc(Cc3ccccc3)cc2)C(=O)N1 [Example 304] |  |  | > 90 | A (a coordination disorder of 25% or less) |  |
| O=C1CCN(c2ccc(Cc3cccc(F)c3)cc2)C(=O)N1 [Example 305, 1-(4-(3-Fluorobenzyl)Phenyl)Dihydropyrimidine-2,4 (1H,3H)-Dione] |  |  | > 90 | A (a coordination disorder of 25% or less) |  |
| O=C1CCN(c2ccc(Oc3cccc(C(F)(F)F)c3)cc2)C(=O)N1 [Example 307] |  |  | 70 to 90 | A (a coordination disorder of 25% or less) |  |
| O=C1CCN(c2ccc(Oc3ccccc3F)cc2)C(=O)N1 [Example 309] |  |  | > 90 | A (a coordination disorder of 25% or less) |  |
